# Laboratory results as given in patent publication US20230077514A1, “METHODS FOR MODULATING CALORIE CONSUMPTION” (Duke University, priority 2020, published 2023).
# “Also recorded” adds a separate entry of the source.
# Legend:
# [1] = tested on: P2 purinoceptor; assay: Vagal nerve recording with P2 purinoceptor antagonist; assay type: in vivo, mice; settings: PPADS 25 mg/kg
# Excerpt: Margolskee, J. Biol. Chem. 277(1): 1-4 (2002); Lu et al., Nature Com. 10(1): (2019). […] (FIG. 33, FIG. 36, and FIG. 37).
# [2] = tested on: cervical vagus nerve; assay: Whole nerve electrophysiology of the cervical vagus during duodenal sugar perfusion; assay type: in vivo, mice; settings: for vagal response (firing) to intraduodenal sugar vs baseline: wild-type mice, sucrose 300 mM, D-glucose 150 mM, fructose 150 mM, galactose 150 mM, maltodextrin 8%, α-MGP 150 mM, sucralose 15 mM, acesulfame K 15 mM, saccharin 15 mM
# Method: FIG. 1. […] Model: sugars are perfused into the duodenal lumen while nerve activity is recorded from the cervical vagus of anesthetized wild-type mice.
# The proximal duodenum was perfused with sugars, thus bypassing any gustatory or gastric activation. Sugars were tested based on the following properties: both caloric content and sweet taste (sucrose [300 mM], D-glucose [150 mM], […], galactose [150 mM]), calorie-only (maltodextrin [8%], alpha-methylglucopyranoside (α-MGP) [150 mM]), or taste-only (sucralose [15 mM], acesulfame-K [15 mM], saccharin [15 mM]) (FIG. 1, FIG. 2, FIG. 3, FIG. 4).
# [3] = tested on: duodenal Cck cells; assay: Vagal recording with intraluminal 532 nm laser silencing of duodenal Cck (neuropod) cells; assay type: in vivo; settings: Cck_Halo mice; sucrose 300 mM, α-mgp 150 mM, sucralose 15 mM
# Method: FIG. 9. Model: intraluminal 532 nm laser activates NpH3 chloride channels to silence duodenal Cck cells in CckCRE_NpH3 mice.
# Using whole nerve electrophysiology of the cervical vagus nerve, it was confirmed that vagal activity increases in the presence of luminal sugars. Kaelberer et al., Science 361 (6408) (2018). The proximal duodenum was perfused with sugars, thus bypassing any gustatory or gastric activation. Sugars were tested based on the following properties: both caloric content and sweet taste (sucrose [300 mM], D-glucose [150 mM], fructose [150 mM], galactose [150 mM]), calorie-only (maltodextrin [8%], alpha-methylglucopyranoside (α-MGP) [150 mM]), or taste-only (sucralose [15 mM], acesulfame-K [15 mM], saccharin [15 mM]) (FIG. 1, FIG. 2, FIG. 3, FIG. 4). […] Intraluminal application of the 532 nm laser eliminated the vagal response to sucrose [300 mM], α-mgp [150 mM], and sucralose [15 mM] (n ≥ 5, p < 0.001) (FIG. 10 and FIG. 11; laser activation and wild-type controls). Thus, neuropod cells are required to sense both the calorie and taste properties of sugar and communicate these signals onto vagal neurons.
# Cck neuropod cells in the duodenum express receptors for fatty acids (FIG. 69), analyzed by bulk sequencing Cck-positive and Cck-negative epithelial cells in the duodenum of CckGFP mice. Thus, CCK cells in the duodenum may signal the presence of fatty acids to the vagus nerve. To test this, the silencing optogenetic channel was expressed in Cck cells of mice. […] In the duodenum, there is overlap in cells expressing CCK and the vesicular glutamate transporter 1 (Vglut1), required for release of the neurotransmitter glutamate. To test whether glutamate is required as a signaling molecule for fat transduction to the vagus nerve, a cocktail of glutamate receptor inhibitors was perfused through the duodenum of wild type mice. Blockade of ionotropic and metabotropic glutamate receptors blocked vagal firing elicited by glutamate (FIG. 71). […] In an initial baseline test, mice freely explore an arena for 20 minutes, during which their position in the arena measured. […]
# [4] = tested on: murine small intestinal organoids; assay: Glutamate release assay on murine small intestinal organoids; assay type: cell-based, mouse; settings: sucrose 300 mM, α-MGP 150 mM, sucralose 15 mM; for glutamate concentration in the supernatant after stimulation: PBS control 2.632 ± 1.280; for glutamate release compared to PBS: p < 0.05
# Method: Slc5a1+ Cck-GFP cells express transcripts for the vesicular glutamate transporters Slc17a6, Slc17a7, Slc17a8 and the excitatory neurotransmitter transporters Slc1a1, Slc1a2, and Slc1a3 (FIG. 4). […] A glutamate release assay was performed on murine small intestinal organoids to determine if glutamate release was stimuli specific (FIG. 24-left). α-MGP was used for a caloric stimulus with no sweet taste, because it is not metabolized once it enters the cell and thus allowed for isolation of cell entry. After nutrient stimulation, the glutamate concentration in the supernatant was 2.632 ± 1.280 ng/µL for PBS control, 13.460 ± 1.724 ng/µL for sucrose [300 mM], 18.183 ± 7.904 ng/µL for α-MGP [150 mM], and 6.053 ± 1.169 ng/µL for sucralose [15 mM].
# [5] = tested on: human duodenal organoids; assay: Glutamate release assay on human duodenal organoids; assay type: cell-based; settings: sucrose 300 mM, α-MGP 150 mM, sucralose 15 mM, n = 1 human
# [6] = Two-bottle choice between iso-sweet sucrose and sucralose; assay type: in vivo, mice
# Method: Domingos et al., Nature Neurosci. […] Behav. […] Bennink et al., J. Nucl. […] Perez et al., Pharmacol. Biochem. Behav. […] Thus, a goal of this study was to determine if synaptic gut-brain neurotransmission drives sugar preference.
# CckCRE_NpH3 mice (n = 8) and littermate controls (n = 5) were implanted with the flexible fiberoptic and given the choice between iso-sweet sucrose [300 mM] and sucralose [15 mM] in a one-hour choice assay (FIG. 38 and FIG. 53). […] Whether the caloric neurotransmitter glutamate was contributing to the sucrose preference was tested.
# [7] = target: T1, sweet taste receptor T1R2/3 (Mus musculus, UniProt Q925D8+Q925I4); assay: Receptor pharmacology in whole nerve (vagal) electrophysiology: sweet taste receptor block; assay type: in vivo, mice; settings: gurmarin 7 µM
# T1 construct: from tissue; host or cells: living mouse: duodenal lumen perfused, cervical vagus nerve recorded
# T1 sequence (Q925I4 20-843): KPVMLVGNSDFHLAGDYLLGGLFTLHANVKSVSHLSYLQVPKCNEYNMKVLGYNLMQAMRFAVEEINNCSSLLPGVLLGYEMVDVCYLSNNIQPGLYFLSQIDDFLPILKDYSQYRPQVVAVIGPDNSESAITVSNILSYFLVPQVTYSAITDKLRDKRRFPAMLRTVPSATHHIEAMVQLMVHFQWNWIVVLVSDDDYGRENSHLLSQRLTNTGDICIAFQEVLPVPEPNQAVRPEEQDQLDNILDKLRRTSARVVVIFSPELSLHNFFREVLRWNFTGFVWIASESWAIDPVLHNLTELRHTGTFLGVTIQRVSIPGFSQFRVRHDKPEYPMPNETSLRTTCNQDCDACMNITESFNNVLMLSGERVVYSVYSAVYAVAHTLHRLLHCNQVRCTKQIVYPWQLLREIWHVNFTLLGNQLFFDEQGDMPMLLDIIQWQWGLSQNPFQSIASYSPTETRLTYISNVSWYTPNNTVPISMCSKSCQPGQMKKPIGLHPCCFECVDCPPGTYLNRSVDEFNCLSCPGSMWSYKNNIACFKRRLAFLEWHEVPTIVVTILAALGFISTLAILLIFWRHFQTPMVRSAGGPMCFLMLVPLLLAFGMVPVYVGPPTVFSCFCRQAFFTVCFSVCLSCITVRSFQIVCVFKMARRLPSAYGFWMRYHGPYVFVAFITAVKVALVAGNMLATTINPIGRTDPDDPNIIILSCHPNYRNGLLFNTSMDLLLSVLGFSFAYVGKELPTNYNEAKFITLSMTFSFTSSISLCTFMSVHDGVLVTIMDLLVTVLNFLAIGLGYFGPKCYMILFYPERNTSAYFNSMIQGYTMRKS
# T1 sequence (Q925D8 21-858): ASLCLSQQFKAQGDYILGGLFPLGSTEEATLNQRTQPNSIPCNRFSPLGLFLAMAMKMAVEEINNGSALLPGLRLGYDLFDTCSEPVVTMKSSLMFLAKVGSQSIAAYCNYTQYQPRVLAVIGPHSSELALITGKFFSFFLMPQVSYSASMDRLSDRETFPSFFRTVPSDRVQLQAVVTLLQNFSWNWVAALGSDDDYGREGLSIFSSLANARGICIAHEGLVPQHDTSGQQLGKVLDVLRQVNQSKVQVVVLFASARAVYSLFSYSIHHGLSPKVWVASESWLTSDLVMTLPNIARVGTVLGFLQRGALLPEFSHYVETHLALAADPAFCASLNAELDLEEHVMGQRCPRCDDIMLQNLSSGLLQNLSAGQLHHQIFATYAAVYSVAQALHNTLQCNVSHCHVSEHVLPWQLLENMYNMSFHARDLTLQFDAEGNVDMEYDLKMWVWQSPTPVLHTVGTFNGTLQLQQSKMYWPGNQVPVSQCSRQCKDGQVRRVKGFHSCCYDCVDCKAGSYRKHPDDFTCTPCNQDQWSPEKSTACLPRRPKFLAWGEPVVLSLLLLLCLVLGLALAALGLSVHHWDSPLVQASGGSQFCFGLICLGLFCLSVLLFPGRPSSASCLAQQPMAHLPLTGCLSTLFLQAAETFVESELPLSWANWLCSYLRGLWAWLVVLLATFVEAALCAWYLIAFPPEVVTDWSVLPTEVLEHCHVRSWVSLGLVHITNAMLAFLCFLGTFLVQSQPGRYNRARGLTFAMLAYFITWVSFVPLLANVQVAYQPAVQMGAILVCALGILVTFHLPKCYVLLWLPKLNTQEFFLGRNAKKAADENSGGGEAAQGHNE
# Excerpt: (FIG. 21 and FIG. 22), showing neuropod cells use two distinct receptor mechanisms to transduce caloric and non-caloric sugar signals to the vagus nerve.
compound,measurement,setting,value
"Cc1nc(N=Nc2ccc(S(=O)(=O)O)cc2S(=O)(=O)O)c(COP(=O)(O)O)c(C=O)c1O [PPADS, pyridoxalphosphate-6-azophenyl-2’,4'-disulfonic acid]",time to peak vagal firing rate to sucralose,[1]; sucralose 15 mM,prolonged
same,effect on vagal response to sucralose,"[1]; sucralose 15 mM, wild-type mice",significantly attenuates; also recorded: abolished
same,effect on vagal response to sucrose,[1]; sucrose 300 mM,not affected
same,effect on vagal response to α-MGP,[1]; α-MGP 150 mM,not affected
CC1=CC(=O)[N-]S(=O)(=O)O1.[K+] [acesulfame K],vagal response (firing) to intraduodenal sugar vs baseline,[2],responds significantly
O=C(CO)[C@@H](O)[C@H](O)[C@H](O)CO [fructose],vagal response at high concentrations,"[2]; fructose 600 mM and 1 M, n.s.",blunted vagal response
same,vagal response (firing) to intraduodenal sugar vs baseline,[2],no significant
O=C[C@H](O)[C@@H](O)[C@@H](O)[C@H](O)CO [galactose],vagal response (firing) to intraduodenal sugar vs baseline,[2],elicited significant vagal firing
O=C1NS(=O)(=O)c2ccccc21 [saccharin],vagal response (firing) to intraduodenal sugar vs baseline,[2],no significant
OC[C@H]1O[C@@](CO)(O[C@H]2O[C@H](CO)[C@@H](O)[C@H](O)[C@H]2O)[C@@H](O)[C@@H]1O [sucrose],vagal response (firing) to intraduodenal sugar vs baseline,[2],responds significantly
same,vagal response with Cck cells silenced by 532 nm laser,[3],eliminated
same,glutamate concentration in the supernatant after stimulation,[4],13.460 ± 1.724 ng/µL
same,glutamate release compared to PBS,[4],significantly higher; also recorded: elicit significant release of glutamate
same,glutamate release compared to PBS control,[5],elicited glutamate release; also recorded: release significant amounts of glutamate
same,preference for sucrose,"[6]; CckCRE_NpH3 mice, control 473 nm laser, one-hour choice",90.8% ± 3.74%
same,preference for sucrose,"[6]; CckCRE_NpH3 mice, silencing 532 nm laser, one-hour choice vs sucralose 15 mM",58.9% ± 3.92%
same,preference for sucrose,"[6]; negative genotype littermate controls, 473 nm",84.2% ± 6.30%
same,preference for sucrose,"[6]; negative genotype littermate controls, 532 nm",87.7% ± 2.21
"COC1OC(CO)C(O)C(O)C1O (stereo not drawn) [α-MGP, alpha-methylglucopyranoside]",vagal response (firing) to intraduodenal sugar vs baseline,[2],responds significantly
same,vagal response with Cck cells silenced by 532 nm laser,[3],eliminated
same,glutamate concentration in the supernatant after stimulation,[4],18.183 ± 7.904 ng/µL
same,glutamate release compared to PBS,[4],significantly higher
same,glutamate release compared to PBS,[4]; listed as aMGP,elicit significant release of glutamate
same,glutamate release compared to PBS control,[5],elicited glutamate release
same,glutamate release compared to PBS control,[5]; listed as aMGP,release significant amounts of glutamate
gurmarin,effect on vagal firing elicited by sucralose,[7]; sucralose 15 mM,abolished; also recorded: inhibited
same,effect on vagal response to sucrose,[7]; sucrose 300 mM,did not affect
same,effect on vagal response to α-MGP,[7]; α-MGP 150 mM,did not affect
